pEC50: −log10 of the molar value.

Experimental findings from PMC3727052 (Bioorganic & medicinal chemistry, 2012) are described below.

Data set [1] relates to MDCK. As to conditions: MDCK cells, microscopically visible alteration of cell morphology.
For data set [2], the system named is HeLa. As to conditions: HeLa cells, microscopically visible alteration of cell morphology.
Data set [3] has as its system Vero. The conditions noted are these: Vero cells, microscopically visible alteration of cell morphology.
Data set [4] deals with Parainfluenza-3 virus. The data set can be described thus: Virus-induced cytopathicity, parainfluenza-3 virus in Vero cells. The conditions noted are these: read-out: EC50 Parainfluenza-3 virus. In kind it is cell-based. In general terms: Damage to the host cells serves as the signal in cytopathic effect assays.
In data set [5] the test system is Reovirus-1. The data set can be described thus: Virus-induced cytopathicity, reovirus-1 in Vero cells. As to conditions: read-out: EC50 Reovirus-1. Format: cell-based.
Data set [6] relates to VZV (OKA & 07/1). Briefly: VZV plaque formation assay in HEL cells. In kind it is cell-based, varicella-zoster virus. The conditions noted are these: Human alphaherpesvirus 3, HEL, 120 h, read-out: EC50 VZV (OKA & 07/1).
The subject of data set [7] is HEL. As to conditions: HEL cells, microscopically visible alteration of cell morphology.
Data set [8] concerns Influenza virus (AH3N2). The data set can be described thus: Virus-induced cytopathicity, influenza A H3N2 in MDCK cells. In kind it is cell-based. The conditions noted are these: unidentified influenza virus, read-out: EC50 Influenza virus (AH3N2).
The test system of data set [9] is RSV. The data set can be described thus: Virus-induced cytopathicity, RSV in HeLa cells. Format: cell-based. The conditions noted are these: human respiratory syncytial virus, read-out: EC50 RSV.
The test system of data set [10] is Influenza virus B. Briefly: Virus-induced cytopathicity, influenza B in MDCK cells. In kind it is cell-based. As to conditions: unidentified influenza virus, read-out: EC50 Influenza virus B.

For `Nc1nc2c(sc3ncn([C@H]4C[C@H](O)[C@@H](CO)O4)c32)c(=O)[nH]1` [Compound 5, 1-[(5-Aminoimidazo[4′,5′:4,5]thieno[3,2-d]pyrimidin-3-yl-7-one)]-β-D-2′-deoxyribofuranose], in data set [1], the “MCC (minimal cytotoxic concentration) MDCK” value is 0.8 µM. The “MCC (minimal cytotoxic concentration) HeLa” value in [2] is listed as 100 µM. Moreover, the “MCC (minimal cytotoxic concentration) Vero” value in data set [3] is recorded as 100 µM. Besides, the pEC50 in [4] was < 4.00; in [5], < 4.00; in data set [6], 4.00 to 4.15. The “MCC (minimal cytotoxic concentration) HEL” value in data set [7] is >100 µM.
Take `NC(=O)c1ncn([C@@H]2O[C@H](CO)[C@@H](O)[C@H]2O)n1` [Ribavirin]: the pEC50 in data set [8] was 5.05 to 5.29; in data set [9] it was 5.00; in data set [5], < 3.60; in data set [10], 5.05 to 5.35.
As to `Nc1ncnc2c1sc1ncn([C@H]3C[C@H](O)[C@@H](CO)O3)c12` [Compound 6, 1-[(7-aminoimidazo[4′,5′:4,5]thieno[3,2-d]pyrimidin-3-yl)]-β-D-2′-deoxyribofuranose], the “MCC (minimal cytotoxic concentration) MDCK” value in [1] came to 20 µM. Besides, the “MCC (minimal cytotoxic concentration) HeLa” value in data set [2] is listed as >100 µM. Besides, the “MCC (minimal cytotoxic concentration) Vero” value in [3] was >100 µM. Further, in data set [4], the pEC50 is < 4.00. Besides, the “MCC (minimal cytotoxic concentration) HEL” value in data set [7] was ≥20 µM.
